Patent publication US10722480B2, “Agent for controlling cells constituting cancer microenvironment or inflammatory microenvironment” (The University of Tokyo, priority 2015, dated 2020)

Experiments:
[1] = system: infiltrating cells in the peritoneum (macrophages, neutrophils); experiment: In vivo chemotaxis assay (thioglycolate peritonitis); parameters: species or system mouse; settings: wild-type mice
Experimental: Peritonitis was induced by intraperitoneal administration of 2 mL of 4% thioglycolate medium (Difco) to each of FNT^flox/flox mice and FNT-cKO mice. Infiltrating cells in the peritoneum were collected by injecting 5 mL of ice-cold PBS into the abdominal cavity and giving a gentle massage. The collected cells was washed with PBS containing 0.1% FBS, and then subjected to flow cytometry analysis to investigate the cell number and the cell populations. The same treatment as in the above-described section 8 was carried out on wild-type mice to induce peritonitis, and infiltrating cells in the peritoneum were collected. After washing the collected cells, flow cytometry analysis was carried out to investigate the cell number and the cell populations. For evaluation of disulfiram, disulfiram was dissolved in DMSO, and then diluted in 2% Tween 80-containing physiological saline to each concentration shown in the figure. Each resulting disulfiram solution was administered to mice 1 day before and 30 minutes before the administration of thioglycolate.

LLC tumor = experiment: Combined use with anti-PD-1 antibody, LLC tumor-bearing model; type: in vivo, mouse; settings: DSF in feed from Day 4, anti-PD-1 antibody 0.2 mg i.p. x4
Experimental: To provide an example of combined use of an anticancer drug and disulfiram (DSF), the effect of combined use of an anti-PD-1 antibody, which is an anticancer drug targeting an immune checkpoint molecule, and DSF was studied using an LLC tumor-bearing model and a B16 tumor-bearing model. The B16 tumor-bearing model was prepared by transplanting 5×10^5 B16 melanoma cells to the right abdomen of each of wild-type C57BL/6 mice. Preparation of the LLC tumor-bearing model was carried out in the same manner as in the above-described section 3. A feed supplemented with DSF was provided in the same manner as in the above-described section 3.
The day of the transplantation of the tumor cells to the mice was defined as Day 0. From Day 4, the mice were fed with the feed supplemented with DSF or a control feed every day during the experimental period. An anti-PD-1 antibody (J43, manufactured by BioXcell) was intraperitoneally administered once at a dose of 0.2 mg on each of Day 5, Day 8, Day 14, and Day 18 (four times in total). To provide a control for the antibody administration, PBS was intraperitoneally administered. The tumor size was measured using a caliper twice a week, and the tumor volume was calculated.

FROUNT protein = biological target: T1, FROUNT protein (Homo sapiens, UniProt Q9BW27); experiment: NMR analysis of binding to FROUNT fragment
T1 construct: A fragment consisting of the region of the 500th to 656th amino acids of FROUNT protein; made in house
T1 sequence (Q9BW27 500-656): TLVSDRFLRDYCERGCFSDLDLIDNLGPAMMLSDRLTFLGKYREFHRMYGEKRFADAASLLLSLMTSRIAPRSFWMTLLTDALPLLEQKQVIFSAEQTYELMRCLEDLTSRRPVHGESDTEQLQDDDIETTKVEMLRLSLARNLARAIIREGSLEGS
Experimental: A fragment consisting of the region of the 500th to 656th amino acids of FROUNT protein and a CCR2 pro-C region fragment of 16 residues (SEQ ID NO:3) were prepared, and the binding state between the two fragments and the binding state between FROUNT protein and disulfiram were investigated by NMR analysis.

FROUNT-CCR2 interaction = biological target: T2, FROUNT-CCR2 interaction (Homo sapiens, UniProt Q9BW27); experiment: HTRF binding inhibition assay, FROUNT-CCR2 interaction
T2 construct: made in house
T2 sequence (Q9BW27 500-656): T1 sequence (Q9BW27 500-656)
Experimental: (§1) For the screening, a compound library containing 131,200 kinds of compounds dissolved in DMSO at a concentration of 10 mM or 2 mM (obtained from Open Innovation Center for Drug Discovery, the University of Tokyo) was used. The HTRF assay was carried out using a 384-well low-dose white microplate (Corning Coaster; catalog number 3676). In each well, 4 μL of a solution of 20 nM GST fusion FROUNT protein (a recombinant polypeptide prepared by fusing GST to aa 500-656 of SEQ ID NO:2), and DMSO or test compounds were mixed with a binding buffer (10 mM HEPES [pH 7.4], 0.2 M potassium fluoride, 10 mM NaCl, 0.1% Tween 20, and 0.5% bovine serum albumin [BSA]), and the plate was incubated at room temperature for 30 minutes. […]. After incubation at room temperature for 20 hours, the HTRF signal was measured at emission wavelengths of 620 nm and 665 nm using a multilabel counter EnVision (PerkinElmer).
(§2) By the same HTRF assay as described above, the abilities of disulfiram to inhibit the FROUNT-CCR2 interaction or the FROUNT-CCR5 interaction were investigated. As the CCR5 pro-C peptide, the 16 residues […] (SEQ ID NO:4) in the C-terminal region of CCR5 was used. As a control, the p53-MDM2 interaction (which is inhibited by an MDM-2-specific inhibitor Nutlin), which is also a helix peptide-protein interaction like the interaction between FROUNT and CCR2 or CCR5 but is not related thereto, was used.

FROUNT-CCR5 interaction = biological target: T3, FROUNT-CCR5 interaction (Homo sapiens, UniProt Q9BW27); experiment: HTRF binding inhibition assay, FROUNT-CCR5 interaction; settings: result in words
T3 construct: made in house
T3 sequence (Q9BW27 500-656): T1 sequence (Q9BW27 500-656)
Experimental: as §1, §2

interaction with FROUNT / binding site on FROUNT (FROUNT protein): directly interact | inhibitory action against FROUNT-CCR2 relative to p53-MDM2 (FROUNT-CCR2 interaction): about 100 times | inhibition of FROUNT-CCR2 interaction (FROUNT-CCR2 interaction; HTRF, result in words): selectively inhibited | IC50 (FROUNT-CCR2 interaction; HTRF, read-out: FROUNT inhibition (IC50 against FROUNT-CCR2)): 42 nM | inhibition of FROUNT-CCR5 interaction (FROUNT-CCR5 interaction): selectively inhibited
SMILES: CCN(CC)C(=S)SSC(=S)N(CC)CC [DSF, disulfiram]
infiltration of macrophages into peritoneal inflammatory sites [1]: reduced | infiltration of neutrophils into peritoneal inflammatory sites [1]: not influenced | hyperplasia of cancer cells (tumor volume) (LLC tumor): inhibited
